{"source": "PubChem BioAssay AID1259407", "about": "(Chemical Carcinogenesis Research Information System (CCRIS), 2018)", "system": "CCRIS mutagenicity, Ames/micronucleus/aberration tests", "assay": "CCRIS mutagenicity studies", "key": {"[1]": {"details": "Test System: AMES SALMONELLA TYPHIMURIUM, Strain/Indicator: TA98, Metabolic Activation: NONE, Method: PREINCUBATION"}, "[2]": {"details": "Test System: AMES SALMONELLA TYPHIMURIUM, Strain/Indicator: TA100, Metabolic Activation: NONE, Method: PREINCUBATION"}, "[3]": {"details": "Test System: AMES SALMONELLA TYPHIMURIUM, Strain/Indicator: TA100, Metabolic Activation: RAT, LIVER, S-9, PCB, Method: PREINCUBATION"}}, "note": "Calls of active or inactive are those of the source. How the calls were made is not given here.", "data": [{"smiles": "Nc1ncnc2c1ncn2Cc1ccc([N+](=O)[O-])cc1", "values": [{"measurement": "mutagenic call", "setting": "Test System: AMES SALMONELLA TYPHIMURIUM, Strain/Indicator: TA98(1,8-DNP), Metabolic Activation: NONE, Method: PREINCUBATION", "result": "inactive; negative"}, {"measurement": "mutagenic call", "setting": "Test System: AMES SALMONELLA TYPHIMURIUM, Strain/Indicator: TA98(1,8-DNP), Metabolic Activation: RAT, LIVER, S-9, PCB, Method: PREINCUBATION", "result": "inactive; negative"}, {"measurement": "mutagenic call", "setting": "Test System: AMES SALMONELLA TYPHIMURIUM, Strain/Indicator: TA98(NR), Metabolic Activation: NONE, Method: PREINCUBATION", "result": "inactive; negative"}, {"measurement": "mutagenic call", "setting": "Test System: AMES SALMONELLA TYPHIMURIUM, Strain/Indicator: TA98(NR), Metabolic Activation: RAT, LIVER, S-9, PCB, Method: PREINCUBATION", "result": "inactive; negative"}, {"measurement": "mutagenic call", "setting": "[1]", "result": "inactive; negative"}, {"measurement": "mutagenic call", "setting": "Test System: AMES SALMONELLA TYPHIMURIUM, Strain/Indicator: TA98, Metabolic Activation: RAT, LIVER, S-9, PCB, Method: PREINCUBATION", "result": "inactive; negative"}, {"measurement": "mutagenic call", "setting": "Test System: AMES SALMONELLA TYPHIMURIUM, Strain/Indicator: TA100(1,8-DNP), Metabolic Activation: NONE, Method: PREINCUBATION", "result": "inactive; negative"}, {"measurement": "mutagenic call", "setting": "Test System: AMES SALMONELLA TYPHIMURIUM, Strain/Indicator: TA100(1,8-DNP), Metabolic Activation: RAT, LIVER, S-9, PCB, Method: PREINCUBATION", "result": "inactive; negative"}, {"measurement": "mutagenic call", "setting": "Test System: AMES SALMONELLA TYPHIMURIUM, Strain/Indicator: TA100(NR), Metabolic Activation: NONE, Method: PREINCUBATION", "result": "inactive; negative"}, {"measurement": "mutagenic call", "setting": "Test System: AMES SALMONELLA TYPHIMURIUM, Strain/Indicator: TA100(NR), Metabolic Activation: RAT, LIVER, S-9, PCB, Method: PREINCUBATION", "result": "inactive; negative"}, {"measurement": "mutagenic call", "setting": "[2]", "result": "inactive; negative"}, {"measurement": "mutagenic call", "setting": "[3]", "result": "inactive; negative"}, {"measurement": "mutagenic call", "setting": "Test System: AMES SALMONELLA TYPHIMURIUM, Strain/Indicator: YG1020, Metabolic Activation: NONE, Method: PREINCUBATION", "result": "inactive; negative"}, {"measurement": "mutagenic call", "setting": "Test System: AMES SALMONELLA TYPHIMURIUM, Strain/Indicator: YG1020, Metabolic Activation: RAT, LIVER, S-9, PCB, Method: PREINCUBATION", "result": "inactive; negative"}, {"measurement": "mutagenic call", "setting": "Test System: AMES SALMONELLA TYPHIMURIUM, Strain/Indicator: YG1021, Metabolic Activation: NONE, Method: PREINCUBATION", "result": "active; positive"}, {"measurement": "mutagenic call", "setting": "Test System: AMES SALMONELLA TYPHIMURIUM, Strain/Indicator: YG1024, Metabolic Activation: NONE, Method: PREINCUBATION", "result": "inactive; negative"}, {"measurement": "mutagenic call", "setting": "Test System: AMES SALMONELLA TYPHIMURIUM, Strain/Indicator: YG1024, Metabolic Activation: RAT, LIVER, S-9, PCB, Method: PREINCUBATION", "result": "inactive; negative"}, {"measurement": "mutagenic call", "setting": "Test System: AMES SALMONELLA TYPHIMURIUM, Strain/Indicator: YG1025, Metabolic Activation: NONE, Method: PREINCUBATION", "result": "inactive; negative"}, {"measurement": "mutagenic call", "setting": "Test System: AMES SALMONELLA TYPHIMURIUM, Strain/Indicator: YG1025, Metabolic Activation: RAT, LIVER, S-9, PCB, Method: PREINCUBATION", "result": "inactive; negative"}, {"measurement": "mutagenic call", "setting": "Test System: AMES SALMONELLA TYPHIMURIUM, Strain/Indicator: YG1026, Metabolic Activation: NONE, Method: PREINCUBATION", "result": "inactive; negative"}, {"measurement": "mutagenic call", "setting": "Test System: AMES SALMONELLA TYPHIMURIUM, Strain/Indicator: YG1026, Metabolic Activation: RAT, LIVER, S-9, PCB, Method: PREINCUBATION", "result": "inactive; negative"}, {"measurement": "mutagenic call", "setting": "Test System: AMES SALMONELLA TYPHIMURIUM, Strain/Indicator: YG1029, Metabolic Activation: NONE, Method: PREINCUBATION", "result": "inactive; negative"}, {"measurement": "mutagenic call", "setting": "Test System: AMES SALMONELLA TYPHIMURIUM, Strain/Indicator: YG1029, Metabolic Activation: RAT, LIVER, S-9, PCB, Method: PREINCUBATION", "result": "inactive; negative"}]}, {"smiles": "FC(F)(F)C(Cl)Br", "note": "(centres undefined)", "values": [{"measurement": "mutagenic call", "setting": "End Point: IN VITRO CHROMOSOMAL ABERRATIONS, Test System: CHINESE HAMSTER OVARY CELLS, Metabolic Activation: NONE", "result": "inactive; negative"}, {"measurement": "mutagenic call", "setting": "End Point: IN VITRO CHROMOSOMAL ABERRATIONS, Test System: CHINESE HAMSTER OVARY CELLS, Metabolic Activation: RAT, LIVER, S-9, AROCLOR 1254", "result": "inactive; negative"}, {"measurement": "mutagenic call", "setting": "Test System: AMES SALMONELLA TYPHIMURIUM, Strain/Indicator: TA98, Metabolic Activation: HAMSTER, LIVER, S-9, AROCLOR 1254 (10%), Method: PREINCUBATION", "result": "inactive; negative"}, {"measurement": "mutagenic call", "setting": "[1]", "result": "inactive; negative"}, {"measurement": "mutagenic call", "setting": "Test System: AMES SALMONELLA TYPHIMURIUM, Strain/Indicator: TA98, Metabolic Activation: RAT, LIVER, S-9, AROCLOR 1254 (10%), Method: PREINCUBATION", "result": "inactive; negative"}, {"measurement": "mutagenic call", "setting": "Test System: AMES SALMONELLA TYPHIMURIUM, Strain/Indicator: TA100, Metabolic Activation: HAMSTER, LIVER, S-9, AROCLOR 1254 (10%), Method: PREINCUBATION", "result": "inactive; negative"}, {"measurement": "mutagenic call", "setting": "[2]", "result": "inactive; negative"}, {"measurement": "mutagenic call", "setting": "Test System: AMES SALMONELLA TYPHIMURIUM, Strain/Indicator: TA100, Metabolic Activation: RAT, LIVER, S-9, AROCLOR 1254 (10%), Method: PREINCUBATION", "result": "inactive; negative"}, {"measurement": "mutagenic call", "setting": "Test System: AMES SALMONELLA TYPHIMURIUM, Strain/Indicator: TA1535, Metabolic Activation: HAMSTER, LIVER, S-9, AROCLOR 1254 (10%), Method: PREINCUBATION", "result": "inactive; negative"}, {"measurement": "mutagenic call", "setting": "Test System: AMES SALMONELLA TYPHIMURIUM, Strain/Indicator: TA1535, Metabolic Activation: NONE, Method: PREINCUBATION", "result": "inactive; negative"}, {"measurement": "mutagenic call", "setting": "Test System: AMES SALMONELLA TYPHIMURIUM, Strain/Indicator: TA1535, Metabolic Activation: RAT, LIVER, S-9, AROCLOR 1254 (10%), Method: PREINCUBATION", "result": "inactive; negative"}, {"measurement": "mutagenic call", "setting": "Test System: AMES SALMONELLA TYPHIMURIUM, Strain/Indicator: TA1537, Metabolic Activation: HAMSTER, LIVER, S-9, AROCLOR 1254 (10%), Method: PREINCUBATION", "result": "inactive; negative"}, {"measurement": "mutagenic call", "setting": "Test System: AMES SALMONELLA TYPHIMURIUM, Strain/Indicator: TA1537, Metabolic Activation: NONE, Method: PREINCUBATION", "result": "inactive; negative"}, {"measurement": "mutagenic call", "setting": "Test System: AMES SALMONELLA TYPHIMURIUM, Strain/Indicator: TA1537, Metabolic Activation: RAT, LIVER, S-9, AROCLOR 1254 (10%), Method: PREINCUBATION", "result": "inactive; negative"}]}, {"smiles": "COc1ccc2c(cc3c4c(cc5c(c42)OCO5)C(=O)C(=O)N3C)c1OC", "values": [{"measurement": "mutagenic call", "setting": "Test System: AMES SALMONELLA TYPHIMURIUM, Strain/Indicator: TA98, Metabolic Activation: RAT, LIVER, S-9, PHENOBARBITAL AND BETA-NAPHTHOFLAVONE, Method: PREINCUBATION", "result": "active; positive"}, {"measurement": "mutagenic call", "setting": "Test System: AMES SALMONELLA TYPHIMURIUM, Strain/Indicator: TA100, Metabolic Activation: RAT, LIVER, S-9, PHENOBARBITAL AND BETA-NAPHTHOFLAVONE, Method: PREINCUBATION", "result": "active; positive"}]}, {"smiles": "CCc1c(O)c2c(c(O)c1OC)C(=O)C(OC)=C(OC)C2=O", "values": [{"measurement": "mutagenic call", "setting": "Test System: AMES SALMONELLA TYPHIMURIUM, Strain/Indicator: TA98, Metabolic Activation: MICROSOMAL FRACTION, FULLY ACTIVATED, AND RAT LIVER S-9, Method: STANDARD PLATE", "result": "inactive; negative"}, {"measurement": "mutagenic call", "setting": "Test System: AMES SALMONELLA TYPHIMURIUM, Strain/Indicator: TA98, Metabolic Activation: MICROSOMAL FRACTION, NON-FULLY ACTIVATED, Method: STANDARD PLATE", "result": "inactive; negative"}, {"measurement": "mutagenic call", "setting": "Test System: AMES SALMONELLA TYPHIMURIUM, Strain/Indicator: TA100, Metabolic Activation: MICROSOMAL FRACTION, FULLY ACTIVATED, AND RAT LIVER S-9, Method: STANDARD PLATE", "result": "inactive; negative"}, {"measurement": "mutagenic call", "setting": "Test System: AMES SALMONELLA TYPHIMURIUM, Strain/Indicator: TA100, Metabolic Activation: MICROSOMAL FRACTION, NON-FULLY ACTIVATED, Method: STANDARD PLATE", "result": "inactive; negative"}, {"measurement": "mutagenic call", "setting": "Test System: AMES SALMONELLA TYPHIMURIUM, Strain/Indicator: TA1537, Metabolic Activation: MICROSOMAL FRACTION, FULLY ACTIVATED, AND RAT LIVER S-9, Method: STANDARD PLATE", "result": "inactive; negative"}, {"measurement": "mutagenic call", "setting": "Test System: AMES SALMONELLA TYPHIMURIUM, Strain/Indicator: TA1537, Metabolic Activation: MICROSOMAL FRACTION, NON-FULLY ACTIVATED, Method: STANDARD PLATE", "result": "inactive; negative"}]}, {"smiles": "Oc1cc2cc3c(ccc4ccccc43)cc2c2ccccc12", "values": [{"measurement": "mutagenic call", "setting": "Test System: CHINESE HAMSTER V-79, Strain/Indicator: V-79/8-AZAGUANINE, Metabolic Activation: NONE, Method: STANDARD PLATE", "result": "active; positive"}]}, {"smiles": "[N-]=[N+]=NCc1ccccc1", "values": [{"measurement": "mutagenic call", "setting": "End Point: IN VITRO CHROMOSOMAL ABERRATIONS, Test System: CHL CELLS, Metabolic Activation: NONE", "result": "inactive; negative"}, {"measurement": "mutagenic call", "setting": "End Point: IN VITRO CHROMOSOMAL ABERRATIONS, Test System: CHL CELLS, Metabolic Activation: RAT, LIVER, S-9, SODIUM PHENOBARBITAL AND 5,6-BENZOFLAVONE", "result": "inactive; negative"}, {"measurement": "mutagenic call", "setting": "[3]", "result": "active; positive"}]}]}
